Laboratory results taken from ChEMBL document CHEMBL3885881, “DrugMatrix”.

Organism: Rattus norvegicus
Experiment: DrugMatrix - Regimen: Daily Repeat
Assay type: toxicity, organism-based, Sprague-Dawley
Set-up: regimen Daily Repeat, gender Male, age 6-8 weeks
Details: in vivo, po, route oral GAVAGE, […]; for ABSOLUTE BASOPHIL / ABSOLUTE EOSINOPHIL / ABSOLUTE LYMPHOCYTE / ABSOLUTE MONOCYTE / ABSOLUTE SEGMENTED NEUTROPHIL / BASOPHIL / EOSINOPHIL / ERYTHROCYTE COUNT / HEMATOCRIT / HEMOGLOBIN / LEUKOCYTE COUNT / LYMPHOCYTE / MEAN CORPUSCULAR HEMOGLOBIN / MEAN CORPUSCULAR HEMOGLOBIN CONCENTRATION / MEAN CORPUSCULAR VOLUME / MONOCYTE / NEUTROPHIL / NUCLEATED RED BLOOD CELLS / PLATELET COUNT: tissue Blood; for ALANINE AMINOTRANSFERASE / ALBUMIN / ALKALINE PHOSPHATASE / ASPARTATE AMINOTRANSFERASE / BLOOD UREA NITROGEN / CARBON DIOXIDE / CHLORIDE / CHOLESTEROL / CREATINE PHOSPHOKINASE / CREATININE / GLUCOSE / LACTATE DEHYDROGENASE / LIPASE / PHOSPHORUS / POTASSIUM / SODIUM / TOTAL BILIRUBIN / TOTAL PROTEIN / URIC ACID: tissue Plasma
[1] = 29 mg/kg, 120 h, dose level Low, time 5 day
[2] = 450 mg/kg, 72 h, dose level High, time 3 day
[3] = 450 mg/kg, 120 h, dose level High, time 5 day

## C[C@@H]1CN(c2c(F)c(N)c3c(=O)c(C(=O)O)cn(C4CC4)c3c2F)C[C@H](C)N1 [SPARFLOXACIN]
[1]
  ABSOLUTE BASOPHIL: 0 CELLS/uL
  ABSOLUTE EOSINOPHIL: 69.33 CELLS/uL
  ABSOLUTE LYMPHOCYTE: 8350.33 CELLS/uL
  ABSOLUTE MONOCYTE: 91.33 CELLS/uL
  ABSOLUTE SEGMENTED NEUTROPHIL: 455.67 CELLS/uL
  BASOPHIL: 0%
  EOSINOPHIL: 0.67%
  ERYTHROCYTE COUNT: 5.79 x10E6/uL
  HEMATOCRIT: 35.13%
  HEMOGLOBIN: 13.97 G/DL
  LEUKOCYTE COUNT: 8.97 x10E3/uL
  LYMPHOCYTE: 93%
  MEAN CORPUSCULAR HEMOGLOBIN: 24.13 pg
  MEAN CORPUSCULAR HEMOGLOBIN CONCENTRATION: 39.73 G/DL
  MEAN CORPUSCULAR VOLUME: 60.73 fL
  MONOCYTE: 1%
  NEUTROPHIL: 5.33%
  NUCLEATED RED BLOOD CELLS: 0 /100WBC
  PLATELET COUNT: 1048 x10E3/uL
  ALANINE AMINOTRANSFERASE: 62 u/L
  ALBUMIN: 4.03 G/DL
  ALKALINE PHOSPHATASE: 251.67 u/L
  ASPARTATE AMINOTRANSFERASE: 82 u/L
  BLOOD UREA NITROGEN: 13.33 mg/dL
  CARBON DIOXIDE: 33 mmol/L
  CHLORIDE: 98.33 MEQ/L
  CHOLESTEROL: 65.67 mg/dL
  CREATINE PHOSPHOKINASE: 381.67 u/L
  CREATININE: 0.18 mg/dL
  GLUCOSE: 147.33 mg/dL
  LACTATE DEHYDROGENASE: 161.33 u/L
  LIPASE: 12 u/L
  PHOSPHORUS: 10.9 mg/dL
  POTASSIUM: 6.43 MEQ/L
  SODIUM: 144.2 MEQ/L
  TOTAL BILIRUBIN: 0.13 mg/dL
  TOTAL PROTEIN: 6 G/DL
  URIC ACID: 0.77 mg/dL
[2]
  ABSOLUTE BASOPHIL: 0 CELLS/uL
  ABSOLUTE EOSINOPHIL: 0 CELLS/uL
  ABSOLUTE LYMPHOCYTE: 14211.67 CELLS/uL
  ABSOLUTE MONOCYTE: 0 CELLS/uL
  ABSOLUTE SEGMENTED NEUTROPHIL: 1355 CELLS/uL
  BASOPHIL: 0%
  EOSINOPHIL: 0%
  ERYTHROCYTE COUNT: 5.74 x10E6/uL
  HEMATOCRIT: 34.87%
  HEMOGLOBIN: 13.93 G/DL
  LEUKOCYTE COUNT: 15.57 x10E3/uL
  LYMPHOCYTE: 91.33%
  MEAN CORPUSCULAR HEMOGLOBIN: 24.3 pg
  MEAN CORPUSCULAR HEMOGLOBIN CONCENTRATION: 40 G/DL
  MEAN CORPUSCULAR VOLUME: 60.77 fL
  MONOCYTE: 0%
  NEUTROPHIL: 8.67%
  NUCLEATED RED BLOOD CELLS: 0 /100WBC
  PLATELET COUNT: 1148.33 x10E3/uL
  ALANINE AMINOTRANSFERASE: 55.33 u/L
  ALBUMIN: 3.93 G/DL
  ALKALINE PHOSPHATASE: 277.33 u/L
  ASPARTATE AMINOTRANSFERASE: 69.33 u/L
  BLOOD UREA NITROGEN: 12 mg/dL
  CARBON DIOXIDE: 31.67 mmol/L
  CHLORIDE: 101 MEQ/L
  CHOLESTEROL: 72.33 mg/dL
  CREATINE PHOSPHOKINASE: 173 u/L
  CREATININE: 0.21 mg/dL
  GLUCOSE: 159.67 mg/dL
  LACTATE DEHYDROGENASE: 146 u/L
  LIPASE: 10.67 u/L
  PHOSPHORUS: 10.6 mg/dL
  POTASSIUM: 6.2 MEQ/L
  SODIUM: 143.4 MEQ/L
  TOTAL BILIRUBIN: 0.17 mg/dL
  TOTAL PROTEIN: 5.73 G/DL
  URIC ACID: 1.3 mg/dL
[3]
  ABSOLUTE BASOPHIL: 0 CELLS/uL
  ABSOLUTE EOSINOPHIL: 0 CELLS/uL
  ABSOLUTE LYMPHOCYTE: 8740 CELLS/uL
  ABSOLUTE MONOCYTE: 96.67 CELLS/uL
  ABSOLUTE SEGMENTED NEUTROPHIL: 396.67 CELLS/uL
  BASOPHIL: 0%
  EOSINOPHIL: 0%
  ERYTHROCYTE COUNT: 5.14 x10E6/uL
  HEMATOCRIT: 33.83%
  HEMOGLOBIN: 13.17 G/DL
  LEUKOCYTE COUNT: 9.23 x10E3/uL
  LYMPHOCYTE: 94.67%
  MEAN CORPUSCULAR HEMOGLOBIN: 25.83 pg
  MEAN CORPUSCULAR HEMOGLOBIN CONCENTRATION: 38.93 G/DL
  MEAN CORPUSCULAR VOLUME: 66.27 fL
  MONOCYTE: 1%
  NEUTROPHIL: 4.33%
  NUCLEATED RED BLOOD CELLS: 0 /100WBC
  PLATELET COUNT: 1047.33 x10E3/uL
  ALANINE AMINOTRANSFERASE: 67.33 u/L
  ALBUMIN: 4.03 G/DL
  ALKALINE PHOSPHATASE: 374 u/L
  ASPARTATE AMINOTRANSFERASE: 88.67 u/L
  BLOOD UREA NITROGEN: 11 mg/dL
  CARBON DIOXIDE: 30 mmol/L
  CHLORIDE: 97.67 MEQ/L
  CHOLESTEROL: 86 mg/dL
  CREATINE PHOSPHOKINASE: 412.67 u/L
  CREATININE: 0.19 mg/dL
  GLUCOSE: 177.67 mg/dL
  LACTATE DEHYDROGENASE: 159.67 u/L
  LIPASE: 10.33 u/L
  PHOSPHORUS: 12.17 mg/dL
  POTASSIUM: 5.6 MEQ/L
  SODIUM: 141 MEQ/L
  TOTAL BILIRUBIN: 0.1 mg/dL
  TOTAL PROTEIN: 5.93 G/DL
  URIC ACID: 1 mg/dL
